Assay results from ChEMBL document CHEMBL1139604 (Bioorg Med Chem Lett, 2005).

Legend:
[1] = Inhibition of bovine farnesyl transferase; design: species or system Bos taurus
[2] = target: T1, Geranylgeranyl transferase type I (Bos taurus, UniProt P29702+Q5EAD5); assay: Inhibition of bovine geranylgeranyl transferase type I; assay type: protein-complex assay
[3] = target: T2, Protein farnesyltransferase (Mus musculus) (UniProt Q61239+Q8K2I1); assay: Percent inhibition of Ras processing in H-ras transformed NIH3T3 cells at 100 nM; assay type: functional, cell-based
[4] = target: T3, Protein farnesyltransferase (Mus musculus, UniProt Q61239+Q8K2I1); assay: Inhibition of Ras processing in H-ras transformed NIH3T3 cells; assay type: functional, cell-based
[5] = target: T1, Geranylgeranyl transferase type I; assay: Inhibition of bovine geranylgeranyl transferase type I in presence of Lonafarnib; assay type: protein-complex assay
[6] = Inhibition of bovine farnesyl transferase in presence of Lonafarnib; design: species or system Bos taurus
[7] = target: T3, Protein farnesyltransferase; assay: Inhibition of Ras processing in H-ras transformed NIH3T3 cells in presence of Lonafarnib; assay type: functional, cell-based
[8] = target: T2, Protein farnesyltransferase (Mus musculus); assay: Percent inhibition of Ras processing in H-ras transformed NIH3T3 cells at 1000 nM; assay type: functional, cell-based

IC50 [1] [µM] | IC50 [2] [µM] | inhibition [3] [%] | SMILES | further results
0.0051 | > 10 |  | COc1cccc(-n2c(=O)n(C)c3ccc(C(O)(c4ccc(C#N)cc4)c4cncn4C)cc32)c1 (stereo not drawn) | 
0.021 | 2.9 | 0 | Cn1cncc1C(O)(c1ccc(Cl)cc1)c1ccc2c(c1)n(-c1ccc3ccccc3c1)c(=O)n2C (stereo not drawn) | 
1.1 |  |  | Cn1cncc1C(O)(c1ccc(Cl)cc1)c1ccc2c(c1)n(C)c(=O)n2-c1cccc(Cl)c1 (stereo not drawn) | 
0.0005 | > 10 | 47 | CCOc1cccc(-n2c(=O)n(C)c3ccc(C(O)(c4ccc(C#N)cc4)c4cncn4C)cc32)c1 (stereo not drawn) | 
0.0014 | 1.8 |  | Cn1cncc1C(O)(c1ccc(C#N)cc1)c1ccc2c(c1)n(-c1cccc(Cl)c1)c(=O)n2C (stereo not drawn) | EC50 [4]: 0.0181 µM
0.15 |  |  | Cn1cncc1C(O)(c1ccc(Cl)cc1)c1ccc2c(c1)n(-c1ccc3c(c1)OCO3)c(=O)n2C (stereo not drawn) | 
0.0067 | > 10 | 24 | COc1cccc(-n2c(=O)n(C)c3ccc(C(O)(c4ccc(Cl)cc4)c4cncn4C)cc32)c1 (stereo not drawn) | 
0.071 |  |  | Cn1cncc1C(O)(c1ccc(I)cc1)c1ccc2c(c1)n(Cc1cccc(Cl)c1)c(=O)n2C (stereo not drawn) | 
0.0052 | 5.6 | 51 | Cn1cncc1C(O)(c1ccc(C#N)cc1)c1ccc2c(c1)n(Cc1cccc(Cl)c1)c(=O)n2C (stereo not drawn) | 
0.0066 | 7.5 |  | CCOc1cccc(-n2c(=O)n(C)c3ccc(C(O)(c4ccc(Cl)cc4)c4cncn4C)cc32)c1 (stereo not drawn) | EC50 [4]: 0.022 µM
0.024 | 1.2 | 2 | Cn1cncc1C(O)(c1ccc(I)cc1)c1ccc2c(c1)n(-c1cccc(Cl)c1)c(=O)n2C (stereo not drawn) | 
0.15 |  |  | Cn1cncc1C(O)(c1ccc(Cl)cc1)c1ccc2c(c1)n(Cc1cccc(Cl)c1)c(=O)n2C (stereo not drawn) | 
 |  |  | Cn1cncc1[C@@](N)(c1ccc(Cl)cc1)c1ccc2c(c1)c(-c1cccc(Cl)c1)cc(=O)n2C [TIPIFARNIB] | IC50 [5]: > 10 µM; IC50 [6]: 0.0083 µM; EC50 [7]: 0.1 µM
0.2 |  |  | Cn1cncc1C(O)(c1ccccc1)c1ccc2ccn(-c3cccc4ccccc34)c2c1 (stereo not drawn) | 
0.016 |  | 26 | Cn1cncc1C(O)(c1ccc(Cl)cc1)c1ccc2c(c1)n(-c1cccc(Cl)c1)c(=O)n2C (stereo not drawn) | 
0.008 | > 10 | 0 | Cn1cncc1C(O)(c1ccc(C#N)cc1)c1ccc2c(c1)n(-c1ccc3c(c1)OCO3)c(=O)n2C (stereo not drawn) | 
0.036 |  |  | Cn1cncc1C(O)(c1ccccc1)c1ccc2ccn(-c3cccc(Cl)c3)c2c1 (stereo not drawn) | inhibition [8]: 13%
